According to ChEMBL document CHEMBL5728432, “Potent and selective mu opioid receptor modulators” (2021):

Target: Mu-type opioid receptor (Homo sapiens, UniProt P35372)
Experiment: Competition Binding Assay: The competition binding assay was conducted to determine the affinity and selectivity of the synthesized compounds to MOR over KOR and DOR. The Kd and Bmax values for [3H]NLX at MOR and [3H]DPN at KOR had been determined previously. […] [3H]NLX was used to label MOR whilst [3H]DPN was used to label both DOR and KOR. The potency of the new compounds in displacing the specific binding of the radioligand was determined by linear regression analysis of Hill plots.

Mu-type opioid receptor, sequence (P35372 whole entry): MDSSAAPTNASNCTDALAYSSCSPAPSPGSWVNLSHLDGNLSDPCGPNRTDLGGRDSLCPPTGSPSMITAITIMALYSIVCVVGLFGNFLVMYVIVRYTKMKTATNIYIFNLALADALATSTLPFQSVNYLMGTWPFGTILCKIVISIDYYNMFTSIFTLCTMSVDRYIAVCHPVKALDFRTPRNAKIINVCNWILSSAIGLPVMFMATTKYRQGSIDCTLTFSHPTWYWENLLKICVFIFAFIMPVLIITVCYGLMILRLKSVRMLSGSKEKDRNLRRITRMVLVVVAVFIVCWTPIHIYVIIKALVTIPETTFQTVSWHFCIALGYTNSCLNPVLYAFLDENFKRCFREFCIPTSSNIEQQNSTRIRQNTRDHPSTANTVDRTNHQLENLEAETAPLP

| SMILES | Ki [nM] |
| --- | --- |
| O=C(Cc1c[nH]c2ccccc12)N[C@@H]1CC[C@@]2(O)[C@H]3Cc4ccc(O)c5c4[C@@]2(CCN3CC2CC2)[C@H]1O5 | 0.241 |
| O=C(N[C@H]1CC[C@@]2(O)[C@H]3Cc4ccc(O)c5c4[C@@]2(CCN3CC2CC2)[C@H]1O5)c1ccc2cc[nH]c2c1 | 0.434 |
| O=C(CCCc1c[nH]c2ccccc12)N[C@@H]1CC[C@@]2(O)[C@H]3Cc4ccc(O)c5c4[C@@]2(CCN3CC2CC2)[C@H]1O5 | 0.203 |
| O=C(CCc1c[nH]c2ccccc12)N[C@@H]1CC[C@@]2(O)[C@H]3Cc4ccc(O)c5c4[C@@]2(CCN3CC2CC2)[C@H]1O5 | 0.167 |
| O=C(CCCc1c[nH]c2ccccc12)N[C@H]1CC[C@@]2(O)[C@H]3Cc4ccc(O)c5c4[C@@]2(CCN3CC2CC2)[C@H]1O5 | 0.293 |
| O=C(N[C@H]1CC[C@@]2(O)[C@H]3Cc4ccc(O)c5c4[C@@]2(CCN3CC2CC2)[C@H]1O5)c1cccc2[nH]ccc12 | 0.264 |
| O=C(N[C@H]1CC[C@@]2(O)[C@H]3Cc4ccc(O)c5c4[C@@]2(CCN3CC2CC2)[C@H]1O5)c1c[nH]c2ccccc12 | 0.288 |
| O=C(N[C@H]1CC[C@@]2(O)[C@H]3Cc4ccc(O)c5c4[C@@]2(CCN3CC2CC2)[C@H]1O5)c1cc2ccccc2[nH]1 | 0.363 |
| O=C(N[C@H]1CC[C@@]2(O)[C@H]3Cc4ccc(O)c5c4[C@@]2(CCN3CC2CC2)[C@H]1O5)c1ccc2[nH]ccc2c1 | 0.763 |
| O=C(Cc1c[nH]c2ccccc12)N[C@H]1CC[C@@]2(O)[C@H]3Cc4ccc(O)c5c4[C@@]2(CCN3CC2CC2)[C@H]1O5 | 0.837 |
| O=C(CCc1c[nH]c2ccccc12)N[C@H]1CC[C@@]2(O)[C@H]3Cc4ccc(O)c5c4[C@@]2(CCN3CC2CC2)[C@H]1O5 | 0.437 |
